# Test results from patent publication US8771983B2, “Method and kit for expressing protein under regulation of the expression from repeated sequence formed by gene amplification, and transformant” (National University of Corporation Hiroshima University, priority 2004, dated 2014).
# Test system: expression of d2EGFP in human colon cancer cells COLO 320DM cells
# Experiment: Level of expression of d2EGFP after treatment of cells with 5-aza-2′-deoxycytidine and/or Trichostatin A (Example 6)
# Type: cell-based
# Conditions: for accumulated fluorescence intensity / average fluorescence intensity: 3 days
# Description: Fluorescence intensity of these cells were measured by using a cell sorter. The measurement was carried out by sorting 20,000 cells by setting living cells at a gate. The cell sorter used was made by Becton Dickinson, and operated under conditions as described in the manual attached thereto.
# In this method for detecting the fluorescence intensity, detection limit was 1, and all fluorescence intensities of 1 or less would be detected as 1. In view of this, a product of a ratio (cell %) of cells of fluorescence intensities of 2 or more in all living cells (10,000 cells) and an average of the fluorescence intensities of the cells having fluorescence intensities of 2 or more was calculated out for each experimental plot. This product is referred to as “accumulated fluorescence intensity” hereinafter and in later Examples and shown in boxed letter in the figures.
# A mixture of a plasmid (pSFVdhfr/d2EGFP) and the plasmid DNA having the Aves-derived HS4 insulator sequence was transfected to human colon cancer cells COLO 320DM cells by lipofection. The plasmid (pSFVdhfr/d2EGFP) was a plasmid having (a) IR and MAR derived from human DHFR gene locus, (b) Blasticidin tolerance gene, and (c) d2EGFP gene that was under control of TRE-promoter (Tetracycline inducing promoter). The plasmid DNA having the Aves-derived HS4 insulator sequence was identical with the one described in Example 2. From 2 days later since the gene transfection, the cells were selected with 5 μg/ml of Blasticidin (Funakoshi Corp.). After 3 to 4 weeks, many colonies of transformed cells were obtained.
# Into a culture solution of the transformed cells, of 1 μM or 3 μM of 5-aza-2′ deoxycytidine (hereinafter referred to as “5-aza” where appropriate; Sigma) was added. Thereby, the cells were treated with 5-aza for 3 days. For comparison purposes, 20 nM of Trichostatin A (hereinafter referred to as “TSA” where appropriate; histone deacetylation inhibitor, Sigma), which is known as a material for increasing gene expression from the repeated sequence, was added to some culture solutions of the transformed cells and analyzed.
smiles,measurement,setting,value
"Nc1ncn([C@H]2C[C@H](O)[C@@H](CO)O2)c(=O)n1 [5-aza, 5-aza-2′-deoxycytidine]",accumulated fluorescence intensity,1 μM of 5-aza,895
same,average fluorescence intensity,1 μM of 5-aza,9.48
same,accumulated fluorescence intensity,3 μM of 5-aza,1040
same,average fluorescence intensity,3 μM of 5-aza,10.93
same,fluorescence intensity of the cells after treatment versus before treatment,"fluorescence microscopic images, 1 μM of 5-aza",higher
